Test results reported in ChEMBL document CHEMBL3400046, “Discovery and evaluation of a novel monocyclic series of CXCR2 antagonists” (Bioorg Med Chem Lett, 2015).

Key:
[1] = Dissociation constant, pKa of the compound; format: physicochemical
physchem = conditions: octanol/water
in vitro [2] = conditions: human, Caco-2
[3] = Half life in iv dosed rat; format: ADME, organism-based; conditions: in vivo
in vitro [4] = conditions: human, hepatocytes
[5] = Fraction of the dose absorbed in iv dosed rat; format: ADME, organism-based; conditions: in vivo, read-out: Fabs
[6] = Bioavailability in iv dosed rat; format: ADME, organism-based; conditions: in vivo
Rattus norvegicus = experiment: Dose normalized AUC in po dosed rat; format: ADME, organism-based; conditions: in vivo
[7] = Volume of distribution at steady state in iv dosed rat; format: ADME, organism-based; conditions: in vivo, read-out: Vdss
in vivo = conditions: rat, iv
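Wherever logD is given: distribution coefficient determined with the shake-flask method.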

Row | SMILES | pKa [1] | logD (physchem) | hepatocyte CLint (in vitro [4]) [µL/min/1e6 cells] | further results
1 | C[C@H](CO)Nc1cc(C(=O)O)nc(SCc2ccccc2)n1 | 5.5 | -0.7 |  | 
2 | C[C@H](CO)Nc1cc(C(=O)NS(C)(=O)=O)nc(SCc2ccccc2)n1 | 4.9 | -0.7 |  | 
3 | C[C@H](CO)Nc1cc(NS(C)(=O)=O)nc(SCc2ccccc2)n1 | 6.9 | 1.9 |  | 
4 | C[C@H](CO)Nc1cc(NS(=O)(=O)Cc2ccccc2)nc(SCc2ccccc2)n1 |  | 2.7 |  | 
5 | C[C@H](CO)Nc1cc(NS(=O)(=O)C(F)(F)F)nc(SCc2ccccc2)n1 | 5.8 | 2.2 |  | 
6 | C[C@H](CO)Nc1cc(NS(=O)(=O)c2ccccc2)nc(SCc2ccccc2)n1 | 6.6 | 2.5 |  | 
7 | C[C@H](CO)Nc1cc(NS(=O)(=O)c2ccc(Cl)cc2)nc(SCc2ccccc2)n1 | 6.5 | 3.5 |  | 
8 | C[C@H](CO)Nc1cc(NS(=O)(=O)c2ccc(C#N)cc2)nc(SCc2ccccc2)n1 | 6.1 | 2.6 |  | 
9 | C[C@H](CO)Nc1cc(NS(=O)(=O)N(C)C)nc(SCc2ccccc2)n1 | 7.3 | 2.6 |  | 
10 | C[C@H](CO)Nc1cc(NS(=O)(=O)c2cn(C)cn2)nc(SCc2cccc(F)c2F)n1 |  | 1.6 |  | 
11 | C[C@H](CO)Nc1cc(NS(=O)(=O)c2cn(C)cn2)nc(SCc2cccc(Cl)c2F)n1 |  | 2 |  | Papp A→B (in vitro [2]): 1.4 ×10⁻⁶ cm/s
12 | C[C@H](CO)Nc1cc(NS(=O)(=O)N(C)C)nc(SCc2cccc(Cl)c2F)n1 |  | 3.4 |  | Papp A→B (in vitro [2]): 6.4 ×10⁻⁶ cm/s
13 | C[C@H](CO)Nc1cc(NS(=O)(=O)N2CCNCC2)nc(SCc2cccc(Cl)c2F)n1 |  | 1.5 |  | Papp A→B (in vitro [2]): 0.1 ×10⁻⁶ cm/s
14 | C[C@H](CO)Nc1cc(NS(=O)(=O)N2CCC2)nc(SCc2cccc(F)c2F)n1 |  | 2.6 | 3.1 | half-life [3]: 3.2 h; Fa [5]: 50%; bioavailability [6]: 44%; AUC/dose (Rattus norvegicus): 5.9 µM·h; Papp A→B (in vitro [2]): 10.1 ×10⁻⁶ cm/s; Vd [7]: 1.4 L/kg; clearance (in vivo): 8 mL/min/kg
15 | C[C@H](CO)Nc1cc(NS(=O)(=O)N2CCC2)nc(SCc2cccc(Cl)c2F)n1 |  | 3.2 | 2.4 | 
16 | C[C@H](CO)Nc1cc(NS(=O)(=O)N2CCCC2)nc(SCc2cccc(F)c2F)n1 |  | 3.4 | 12 | Papp A→B (in vitro [2]): 7.5 ×10⁻⁶ cm/s
17 | C[C@H](CO)Nc1cc(NS(=O)(=O)N2CCCCC2)nc(SCc2cccc(F)c2F)n1 |  | 3.9 | 30 | 
18 | C[C@H](CO)Nc1cc(NS(=O)(=O)N2CCOCC2)nc(SCc2cccc(F)c2F)n1 |  |  | 4.6 | half-life [3]: 1 h; Fa [5]: 48%; bioavailability [6]: 31%; AUC/dose (Rattus norvegicus): 1.6 µM·h; Vd [7]: 1.1 L/kg; clearance (in vivo): 25 mL/min/kg
19 | C[C@H](CO)Nc1cc(NS(=O)(=O)N2CCOCC2)nc(SCc2cccc(Cl)c2F)n1 |  | 3.1 | 8 | Papp A→B (in vitro [2]): 5.4 ×10⁻⁶ cm/s
20 | C[C@H](CO)Nc1nc(SCc2cccc(F)c2F)nc2nc(N)sc12 |  |  |  | Fa [5]: 12%; bioavailability [6]: 9%; AUC/dose (Rattus norvegicus): 0.7 µM·h
21 | C[C@H](CO)Nc1nc(SCc2cccc(F)c2F)nc2[nH]c(=O)sc12 |  |  | 15 | half-life [3]: 1.1 h; Fa [5]: 24%; bioavailability [6]: 22%; AUC (Rattus norvegicus): 2.1 µM·h; Vd [7]: 0.3 L/kg; clearance (in vivo): 6 mL/min/kg
